Results as given in ChEMBL document CHEMBL1130518, “11,21-Bisphenyl-19-norpregnane derivatives are selective antiglucocorticoids” (Bioorg Med Chem Lett, 1997).

Experiments:
[1] = molecular target: T1, Progesterone receptor (Homo sapiens) (UniProt P06401); experiment: Relative binding affinity for human progesterone receptor in MCF-7 cell cytosols compared to Org 2058; assay type: cell-based
T1 sequence (whole entry): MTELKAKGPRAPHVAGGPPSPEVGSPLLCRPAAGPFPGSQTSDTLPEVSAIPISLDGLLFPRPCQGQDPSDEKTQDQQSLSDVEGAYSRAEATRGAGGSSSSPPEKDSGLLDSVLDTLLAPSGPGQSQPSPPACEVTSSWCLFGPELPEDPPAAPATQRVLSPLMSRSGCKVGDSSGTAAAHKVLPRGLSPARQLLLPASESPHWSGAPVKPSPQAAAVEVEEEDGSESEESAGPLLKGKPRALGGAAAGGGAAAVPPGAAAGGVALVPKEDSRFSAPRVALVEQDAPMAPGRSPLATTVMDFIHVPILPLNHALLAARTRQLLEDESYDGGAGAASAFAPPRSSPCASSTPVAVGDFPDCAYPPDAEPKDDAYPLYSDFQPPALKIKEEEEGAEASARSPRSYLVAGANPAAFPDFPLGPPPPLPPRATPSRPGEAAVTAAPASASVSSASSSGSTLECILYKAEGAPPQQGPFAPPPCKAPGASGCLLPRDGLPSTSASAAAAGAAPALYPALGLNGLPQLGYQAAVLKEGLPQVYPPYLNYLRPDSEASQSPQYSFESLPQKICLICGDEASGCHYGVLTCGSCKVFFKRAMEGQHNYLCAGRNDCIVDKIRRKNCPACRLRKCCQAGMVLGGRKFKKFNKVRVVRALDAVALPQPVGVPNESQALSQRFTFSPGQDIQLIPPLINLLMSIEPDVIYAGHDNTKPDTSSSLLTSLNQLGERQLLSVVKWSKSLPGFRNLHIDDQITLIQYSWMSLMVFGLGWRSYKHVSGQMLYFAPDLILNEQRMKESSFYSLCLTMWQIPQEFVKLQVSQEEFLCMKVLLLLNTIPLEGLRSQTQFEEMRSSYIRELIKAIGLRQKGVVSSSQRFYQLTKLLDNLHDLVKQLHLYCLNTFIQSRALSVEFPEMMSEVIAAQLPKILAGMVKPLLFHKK

[2] = Ratio of compound to that of glucocorticoid receptor binding and progesterone receptor binding was determined

Affinity [1] [%]	Ratio [2]	SMILES
2	44	CN(C)c1ccc([C@H]2C[C@@]3(C)C(CC[C@@]3(O)C#Cc3ccc(S(C)(=O)=O)cc3)C3CCC4=CC(=O)CCC4=C32)cc1 (some centres undefined)
0.2	490	C[C@]12C[C@H](c3ccc4c(c3)OCCO4)C3=C4CCC(=O)C=C4CCC3C1CC[C@@]2(O)C#Cc1ccc(N2CCCC2=O)cc1 (some centres undefined)
1.7	49	CN(C)c1ccc(C#C[C@]2(O)CCC3C4CCC5=CC(=O)CCC5=C4[C@@H](c4ccc(N(C)C)cc4)C[C@@]32C)cc1 (some centres undefined)
0.4	488	C[C@]12C[C@H](c3ccc4c(c3)OCO4)C3=C4CCC(=O)C=C4CCC3C1CC[C@@]2(O)C#Cc1ccc(S(C)(=O)=O)cc1 (some centres undefined)
6.1	1	CN(C)c1ccc(/C=C/[C@]2(O)CCC3C4CCC5=CC(=O)CCC5=C4[C@@H](c4ccc(N(C)C)cc4)C[C@@]32C)cc1 (some centres undefined)
36	5.4	CC#C[C@]1(O)CC[C@H]2[C@@H]3CCC4=CC(=O)CCC4=C3[C@@H](c3ccc(N(C)C)cc3)C[C@@]21C
16	6	CN(C)c1ccc([C@H]2C[C@@]3(C)C(CC[C@@]3(O)C#Cc3ccccc3)C3CCC4=CC(=O)CCC4=C32)cc1 (some centres undefined)
